For 4 compounds, IC50, melting point and GI50 results are on record in publication PMC9166630, “SAR Probing of KX2-391 Provided Analogues With Juxtaposed Activity Profile Against Major Oncogenic Kinases” (Frontiers in Oncology, 2022).

One data set has as its system K562 leukemia cell line. Briefly: CellTiter-Blue cell viability assay, K562. It counts as cell-based. The following applies: Homo sapiens, CellTiter-Blue, 48 h, maximum tested concentration 20 µM, read-out: IC50 ± SEM, K562. As for the experimental part: (§1) HL60, K562, MV4-11 and NB4 were purchased from CLS Cell Line Service GmbH (Eppelheim, Germany). All cell lines were cultured in RPMI-1640 medium supplemented with 10% fetal bovine serum (FBS) (Thermo Fisher Scientific) and 0.1% ciprofloxacin (2.5mg/ml; Cipla Limited; Mumbai, India), and were maintained at 37°C in the presence of 21% O2 and 5% CO2.
(§2) Cell viability was determined using the CellTiter®-Blue Cell Viability Assay kit (Promega, Madison, WI, USA). Approximately 10^4 cells were counted and plated in a 96-well plate in the presence of test compounds ranging from 0.01 to 10 or 20 µM in triplicate and were incubated for 48 h at 37°C in a humidified incubator. After the incubation period was complete, 20 µL of CellTiter®-Blue Cell Viability Assay reagent was added to each well and incubated for additional 2 h for the development of florescence. Florescence was measured at Ex/Em 540/590 on SpectraMax® i3 Multi-Mode microplate reader (Molecular Devices, LLC; San Jose, CA, USA) and plotted against drug concentration to determine the IC50 of the test compounds. The IC50 was obtained by non-linear regression model using GraphPad Prism 6.07 (GraphPad Software, Inc, USA).
In general terms: Alamar Blue is a resazurin reagent that responds to reducing activity.

In data set [1] the test system is MV4-11 leukemia cell line. The experiment in a line: CellTiter-Blue cell viability assay, MV4-11. Format: cell-based. The note with it: Homo sapiens, CellTiter-Blue, 48 h, maximum tested concentration 20 µM, read-out: IC50 ± SEM, MV4-11. As for the experimental part: as §1, §2
The next data set relates to HCT116 cell line. The experiment in a line: MTT anti-proliferative assay, HCT116. Format: cell-based, human. The following applies: Homo sapiens, HCT-116, 72 h, maximum tested concentration 50 µM, read-out: IC50 ± SEM, HCT116. As for the experimental part:
The test compounds were evaluated for anti-proliferative activity using the MTT viability assay against HCT116 cell line. Cells were seeded in triplicate in 96-well plates at a density of 10x 10^3 cells/mL in a total volume of 200 µL per well. 0.1% of DMSO was used as a vehicle control. Each well was treated with 2 µL test compounds, which had been pre-prepared as stock solutions in […] to furnish the concentration range of study, 0.1 µM to 50 µM, and re-incubated for a further 72 h at 37°C in a humidified atmosphere containing 5% CO2. The culture medium was then removed, and the cells were washed with 100 µL PBS and 100 µL MTT was added, to reach a final concentration of 1 mg/mL MTT. Cells were incubated for 3 h in darkness at 37°C. After that, MTT solution was removed and MTT was solubilized by adding […] DMSO. The cells were maintained at room temperature in darkness for 20 min to ensure thorough color diffusion before reading the absorbance using a microplate reader at 570 nm. All experiments were conducted in triplicates. Results were expressed as percentage viability relative to vehicle control (100%). Dose response curves were plotted and IC50 values (concentration of drug resulting in 50% reduction in cell survival) were obtained using the commercial software package Prism (GraphPad Software, Inc., La Jolla, CA, USA).
For orientation: Formazan colour is commonly taken as a measure of viable cells.

A further data set relates to HL60 leukemia cell line. Briefly: CellTiter-Blue cell viability assay, HL60. The following applies: Homo sapiens, HL-60; CellTiter-Blue, 48 h; maximum tested concentration 20 µM; read-out: IC50 ± SEM, HL60. It counts as cell-based. As for the experimental part:
as §1, §2

Data set [2] relates to N87 (stomach) cancer cells. The experiment in a line: SRB cytotoxicity assay, N87. It counts as cell-based. The note with it: Homo sapiens, 72 h, maximum tested concentration 50 µM, read-out: IC50 ± SEM, N87. As for the experimental part:
(§3) MCF7 (breast) or N87 (stomach) cancer cells were grown in Roswell Park Memorial Institute-1640 (RPMI-1640) medium (Thermo Fisher Scientific, Inc; Waltham, MA, USA), supplemented with 10% heat inactivated fetal bovine serum (FBS), 50 units/mL of penicillin and […] of streptomycin and maintained at 37°C in a humidified atmosphere containing 5% CO2. The cells were maintained as “monolayer culture” by serial subculturing.
(§4) Cytotoxicity was determined using Sulforhodamine B (SRB) method as previously described by Skehan et al. ([66]). Exponentially growing MCF7 and N87 cells were collected using 0.25% Trypsin-EDTA and were then seeded in 96-well plates at a density of 1000-2000 cells/well in 10% FBS and penicillin/streptomycin supplemented RPMI-1640 medium. After 24 h, cells were treated with different concentrations of test compounds and incubated for 72 h at 37°C in a humidified atmosphere containing 5% CO2. Next, the cells were fixed by adding trichloroacetic acid (TCA, 10% final conc. in wells) directly to the wells and incubated for 1 h at 4°C, then cells were washed with distilled water 5 times to remove excess TCA, media, serum proteins, and metabolites, followed by air drying. After that, the fixed cells were stained with 0.4% SRB dissolved in 1% acetic acid for 10 min at room temperature, and excess stain was removed by quickly rinsing with 1% acetic acid. The residual acetic acid was removed completely by air drying the plates for 24 h, and the dye was solubilized with Tris buffer (pH= 7.4, 10 mM) for 5 min on a shaker at 1600 rpm. The optical density (OD) of each well was measured spectrophotometrically at 564 nm with an ELISA microplate reader (ChroMate-4300, FL, USA). The IC50 values (concentration of drug resulting in 50% reduction in cell survival) were calculated according to the equation for Boltzman sigmoidal concentration–response curve using the nonlinear regression fitting models (Graph Pad, Prism Version 5).

Data set [3] has as its system MCF7 (breast) cancer cells. The experiment in a line: SRB cytotoxicity assay, MCF7. It counts as cell-based, human. The following applies: Homo sapiens, MCF7, 72 h, maximum tested concentration 50 µM, read-out: IC50 ± SEM, MCF7. As for the experimental part:
as §3, §4

The subject of data set [4] is HT-29 colon cancer cell line. On the set-up: method as in PMID 29617135. The following applies: read-out: GI50, HT29 (Colon Cancer); cited from earlier work.

A word on the IC50: it is the concentration needed to halve the response being measured. One may read the melting point as the temperature of the solid-liquid transition. The term GI50 denotes the concentration that inhibits growth by half.

Compound `CCC(=O)Nc1ccc(CC(=O)NCc2ccccc2)cc1` [Compound 4b, N-(4-(2-(benzylamino)-2-oxoethyl)phenyl)propionamide] came in with a melting point of 210 °C. Further, the IC50 in the data set with K562 leukemia cell line is greater than 20 µM. The IC50 in data set [1] was greater than 20 µM. In the data set on HCT116 cell line, the concentration for half-maximal inhibition (IC50) is greater than 50 µM. The IC50 in the data set on HL60 leukemia cell line is greater than 20 µM. In data set [2], the IC50 is 32 ± 6.34 µM. Besides, the half-maximal inhibitory concentration (IC50) in data set [3] amounted to 27.7 ± 9.38 µM.
In the case of `O=C(Cc1ccc(NC(=O)c2ccccc2)cc1)NCc1ccccc1` [Compound 4c, N-(4-(2-(benzylamino)-2-oxoethyl)phenyl)benzamide], the melting point was found to be 212 °C. In addition, the IC50 in the data set with K562 leukemia cell line was greater than 20 µM. Moreover, in data set [1], the IC50 stood at 11.9 ± 0.96 µM. Besides, the IC50 with HCT116 cell line amounted to 19.7 ± 4.79 µM. The IC50 in the data set with HL60 leukemia cell line was 5.27 ± 1.94 µM. In data set [2], the concentration for half-maximal inhibition (IC50) is greater than 50 µM. Further, the IC50 in data set [3] came out at 5.11 ± 3.03 µM.
Consider `O=C(Cc1ccc(NC(=O)c2cccc(F)c2)cc1)NCc1ccccc1` [Compound 4d, N-(4-(2-(benzylamino)-2-oxoethyl)phenyl)-3-fluorobenzamide], for which the melting point turned out to be 214 °C. Moreover, in the data set on K562 leukemia cell line, the IC50 is 2.68 ± 0.03 µM. Also, in data set [1], the concentration for half-maximal inhibition (IC50) was determined as 3.2 ± 0.09 µM. In addition, the 50% inhibitory concentration (IC50) in the data set with HCT116 cell line worked out at 19 ± 4.18 µM. Also, in the data set on HL60 leukemia cell line, the concentration for half-maximal inhibition (IC50) stood at 2.96 ± 0.25 µM. Besides, the IC50 in data set [2] is greater than 50 µM. The IC50 in data set [3] worked out at 6.55 ± 1.34 µM.
Regarding `O=C(Cc1ccc(-c2ccccc2)cc1)NCc1cccc(F)c1` [KX1-136], the GI50 in data set [4] was 0.877 µM.
